# Test results reported in PubChem BioAssay AID1963960 (Molecular Pharmacology Branch, DTP, NCI, 2024).
# System: MDA-MB-468 spheroids with HUVEC/MSC, viability
# Assay: Anticancer human tumor MDA-MB-468 cell line growth inhibition [PI3K];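 note: spheroids exposed to agents for seven days before readout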;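 for viability, T/C: 100% = DMSO vehicle control viability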
# Conditions: for IC50: curve of first compound; for viability, T/C: stronger effect = lower value
# Procedure, shortened: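 Spheroid viability read-out. Co-cultures contained the tumor line plus HUVEC and human MSCs. Each agent was paired with a PI3K inhibitor (inavolisib, alpelisib, duvelisib, copanlisib) across half-log dilutions starting at clinical Cmax, or at 10 microM when Cmax was unknown.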
# [1] = second compound 0.00316 µM, first compound 0.0316 µM
# [2] = second compound 0.00316 µM, first compound 0.1 µM
# [3] = second compound 0.00316 µM, first compound 0.316 µM
# [4] = second compound 0.00316 µM, first compound 1 µM
# [5] = second compound 0.00316 µM, first compound 3.16 µM
# [6] = second compound 0.00316 µM, first compound 10 µM
# [7] = second compound 0.01 µM, first compound 0.0316 µM
# [8] = second compound 0.01 µM, first compound 0.1 µM
# [9] = second compound 0.01 µM, first compound 0.316 µM
# [10] = second compound 0.01 µM, first compound 1 µM
# [11] = second compound 0.01 µM, first compound 3.16 µM
# [12] = second compound 0.01 µM, first compound 10 µM
# [13] = second compound 0.0316 µM, first compound 0.0316 µM
# [14] = second compound 0.0316 µM, first compound 0.1 µM
# [15] = second compound 0.0316 µM, first compound 0.316 µM
# [16] = second compound 0.0316 µM, first compound 1 µM
# [17] = second compound 0.0316 µM, first compound 3.16 µM
# [18] = second compound 0.0316 µM, first compound 10 µM
# [19] = second compound 0.1 µM, first compound 0.0316 µM
# [20] = second compound 0.1 µM, first compound 0.1 µM
# [21] = second compound 0.1 µM, first compound 0.316 µM
# [22] = second compound 0.1 µM, first compound 1 µM
# [23] = second compound 0.1 µM, first compound 3.16 µM
# [24] = second compound 0.1 µM, first compound 10 µM
# [25] = second compound 0.316 µM, first compound 0.0316 µM
# [26] = second compound 0.316 µM, first compound 0.1 µM
# [27] = second compound 0.316 µM, first compound 0.316 µM
# [28] = second compound 0.316 µM, first compound 1 µM
# [29] = second compound 0.316 µM, first compound 3.16 µM
# [30] = second compound 0.316 µM, first compound 10 µM
# [31] = second compound 1 µM, first compound 0.0316 µM
# [32] = second compound 1 µM, first compound 0.1 µM
# [33] = second compound 1 µM, first compound 0.316 µM
# [34] = second compound 1 µM, first compound 1 µM
# [35] = second compound 1 µM, first compound 3.16 µM
# [36] = second compound 1 µM, first compound 10 µM
smiles,measurement,setting,value
CC1(C)CCC(CN2CCN(c3ccc(C(=O)NS(=O)(=O)c4ccc(NCC5CCOCC5)c([N+](=O)[O-])c4)c(Oc4cnc5[nH]ccc5c4)c3)CC2)=C(c2ccc(Cl)cc2)C1 + COc1c(OCCCN2CCOCC2)ccc2c3n(c(=NC(=O)c4cnc(N)nc4)nc12)CCN3,IC50,second compound 0.00316 µM,> 10000 nM
same,IC50,second compound 0.01 µM,> 10000 nM
same,IC50,second compound 0.0316 µM,> 10000 nM
same,IC50,second compound 0.1 µM,> 10000 nM
same,IC50,second compound 0.316 µM,< 31.6 nM
same,IC50,second compound 1 µM,< 31.6 nM
same,"viability, T/C",[1],80.4%
same,"viability, T/C",[2],87%
same,"viability, T/C",[3],82.9%
same,"viability, T/C",[4],99.9%
same,"viability, T/C",[5],80.3%
same,"viability, T/C",[6],78.3%
same,"viability, T/C",[7],79.2%
same,"viability, T/C",[8],79.7%
same,"viability, T/C",[9],92%
same,"viability, T/C",[10],87.9%
same,"viability, T/C",[11],76.2%
same,"viability, T/C",[12],90.2%
same,"viability, T/C",[13],77.5%
same,"viability, T/C",[14],71.2%
same,"viability, T/C",[15],80%
same,"viability, T/C",[16],83.1%
same,"viability, T/C",[17],73%
same,"viability, T/C",[18],69.6%
same,"viability, T/C",[19],55.7%
same,"viability, T/C",[20],54.8%
same,"viability, T/C",[21],69.7%
same,"viability, T/C",[22],63.4%
same,"viability, T/C",[23],52.5%
same,"viability, T/C",[24],67.6%
same,"viability, T/C",[25],26.4%
same,"viability, T/C",[26],23.5%
same,"viability, T/C",[27],25.5%
same,"viability, T/C",[28],28.9%
same,"viability, T/C",[29],25.5%
same,"viability, T/C",[30],22.8%
same,"viability, T/C",[31],4.5%
same,"viability, T/C",[32],3.78%
same,"viability, T/C",[33],4.07%
same,"viability, T/C",[34],3.93%
same,"viability, T/C",[35],4.32%
same,"viability, T/C",[36],4.03%
C[C@@H](NC(=O)c1ncnc(N)c1Cl)c1ncc(C(=O)Nc2cc(C(F)(F)F)c(Cl)cn2)s1 + COc1c(OCCCN2CCOCC2)ccc2c3n(c(=NC(=O)c4cnc(N)nc4)nc12)CCN3,IC50,second compound 0.00316 µM,> 10000 nM
same,IC50,second compound 0.01 µM,> 10000 nM
same,IC50,second compound 0.0316 µM,> 10000 nM
same,IC50,second compound 0.1 µM,> 10000 nM
same,IC50,second compound 0.316 µM,< 31.6 nM
same,IC50,second compound 1 µM,< 31.6 nM
same,"viability, T/C",[1],83.1%
same,"viability, T/C",[2],91.9%
same,"viability, T/C",[3],93.5%
same,"viability, T/C",[4],96.2%
same,"viability, T/C",[5],86.4%
same,"viability, T/C",[6],76.4%
same,"viability, T/C",[7],87%
same,"viability, T/C",[8],101%
same,"viability, T/C",[9],87.4%
same,"viability, T/C",[10],101%
same,"viability, T/C",[11],99.7%
same,"viability, T/C",[12],71.4%
same,"viability, T/C",[13],79.7%
same,"viability, T/C",[14],79.2%
same,"viability, T/C",[15],91.6%
same,"viability, T/C",[16],75.9%
same,"viability, T/C",[17],74.5%
same,"viability, T/C",[18],61.6%
same,"viability, T/C",[19],51.1%
same,"viability, T/C",[20],52.5%
same,"viability, T/C",[21],57.5%
same,"viability, T/C",[22],66.6%
same,"viability, T/C",[23],59.9%
same,"viability, T/C",[24],56.6%
same,"viability, T/C",[25],28.3%
same,"viability, T/C",[26],27.8%
same,"viability, T/C",[27],30%
same,"viability, T/C",[28],37.3%
same,"viability, T/C",[29],36.3%
same,"viability, T/C",[30],31.9%
same,"viability, T/C",[31],5.16%
same,"viability, T/C",[32],4.86%
same,"viability, T/C",[33],5.09%
same,"viability, T/C",[34],7.06%
same,"viability, T/C",[35],7.47%
same,"viability, T/C",[36],5.33%
Cn1ncnc1[C@H]1c2n[nH]c(=O)c3cc(F)cc(c23)N[C@@H]1c1ccc(F)cc1 + COc1c(OCCCN2CCOCC2)ccc2c3n(c(=NC(=O)c4cnc(N)nc4)nc12)CCN3,IC50,second compound 0.00316 µM,> 100 nM
same,IC50,second compound 0.01 µM,> 100 nM
same,IC50,second compound 0.0316 µM,83.4 nM
same,IC50,second compound 0.1 µM,23.1 nM
same,IC50,second compound 0.316 µM,< 0.316 nM
same,IC50,second compound 1 µM,< 0.316 nM
same,"viability, T/C","second compound 0.00316 µM, first compound 0.000316 µM",103%
same,"viability, T/C","second compound 0.00316 µM, first compound 0.001 µM",89%
same,"viability, T/C","second compound 0.00316 µM, first compound 0.00316 µM",83.8%
same,"viability, T/C","second compound 0.00316 µM, first compound 0.01 µM",79.1%
same,"viability, T/C",[1],69.4%
same,"viability, T/C",[2],57.9%
same,"viability, T/C","second compound 0.01 µM, first compound 0.000316 µM",79.7%
same,"viability, T/C","second compound 0.01 µM, first compound 0.001 µM",89.8%
same,"viability, T/C","second compound 0.01 µM, first compound 0.00316 µM",92%
same,"viability, T/C","second compound 0.01 µM, first compound 0.01 µM",74.7%
same,"viability, T/C",[7],70.5%
same,"viability, T/C",[8],50.1%
same,"viability, T/C","second compound 0.0316 µM, first compound 0.000316 µM",75.9%
same,"viability, T/C","second compound 0.0316 µM, first compound 0.001 µM",84.6%
same,"viability, T/C","second compound 0.0316 µM, first compound 0.00316 µM",70.2%
same,"viability, T/C","second compound 0.0316 µM, first compound 0.01 µM",67.1%
same,"viability, T/C",[13],57.6%
same,"viability, T/C",[14],48.4%
same,"viability, T/C","second compound 0.1 µM, first compound 0.000316 µM",60.8%
same,"viability, T/C","second compound 0.1 µM, first compound 0.001 µM",65.1%
same,"viability, T/C","second compound 0.1 µM, first compound 0.00316 µM",63.4%
same,"viability, T/C","second compound 0.1 µM, first compound 0.01 µM",55.3%
same,"viability, T/C",[19],48%
same,"viability, T/C",[20],34.7%
same,"viability, T/C","second compound 0.316 µM, first compound 0.000316 µM",29.5%
same,"viability, T/C","second compound 0.316 µM, first compound 0.001 µM",27.4%
same,"viability, T/C","second compound 0.316 µM, first compound 0.00316 µM",26.4%
same,"viability, T/C","second compound 0.316 µM, first compound 0.01 µM",26.9%
same,"viability, T/C",[25],26.7%
same,"viability, T/C",[26],17.5%
same,"viability, T/C","second compound 1 µM, first compound 0.000316 µM",3.21%
same,"viability, T/C","second compound 1 µM, first compound 0.001 µM",2.83%
same,"viability, T/C","second compound 1 µM, first compound 0.00316 µM",2.99%
same,"viability, T/C","second compound 1 µM, first compound 0.01 µM",4.15%
same,"viability, T/C",[31],3.68%
same,"viability, T/C",[32],2.25%
